Reference: US8729055B2, “Ursolic acid derivative and pharmaceutical composition thereof” (Kaohsiung Medical University, priority 2010, dated 2014)
Each block holds one compound with its values, some of them ahead of it.

Legend:
[1] = system: NTUB1 cells (human bladder cancer cell line); assay: MTT cytotoxicity assay against NTUB1 cells; type: cell-based; settings: for IC50 / % of viability at the highest concentration: NTUB1 cells; for IC50: MTT, mean±SD (n=5); for cytotoxic activity against NTUB1 cells, in words: comparison with the parent compound, from Table 1; for % of viability at the highest concentration: given when 50% inhibition not reached at the highest concentration (30 μM)
Protocol: In the present embodiment, cell culture and MTT assay is used for cell viability/proliferation. NTUB1, a human bladder cancer cell line, is established from a high-grade bladder cancer. […] The cells are cultured at 37° C. in a humidified atmosphere containing 5% CO2. […] Briefly, the cells are plated at a density of 1800 cells/well in 96-well plates and incubated at 37° C. overnight before drug exposure. Cells are then cultured in the presence of graded concentrations of the test compound with or without various concentrations of cisplatin (Pharmacia & Upjohn, Milan, Italy) at 37° C. for 72 h. At the end of the culture period, 50 μL of MTT (2 mg/mL in PBS) is added to each well and allowed to react for 3 h. Following centrifugation of plates at 1000 g for 10 min, media are removed and 150 μL DMSO are added to each well. The proportions of surviving cells are determined by absorbance spectrometry at 540 nm using […]) microplate reader. The cell viability is expressed as a percentage to the viable cells of control culture condition. The IC50s of each group are calculated by the […] analysis and presented as mean±standard deviation (SD). […] In Table 1, data are presented as mean±SD (n=5). […] The control cells are treated with culture medium containing 0.1% DMSO. Cisplatin is used as a positive control.

[2] = system: PC3 cells; assay: MTT cytotoxicity assay against PC3 cells; type: cell-based, human; settings: 72 h
Text: (§1) The data shown in FIGS. 4(A) to 4(C) represent mean±SD (n=3) for one experiment performed in triplicate. The symbols, “*” represents p<0.05, “**” represents p<0.01, and “***” represents p<0.001, compared to the control value, respectively.

[3] = system: NTUB1 cells; assay: Cell cycle progression by FACS in propidium iodide-stained NTUB1 cells; type: cell-based, human
Protocol: These cells are harvested by trypsinization, washed with 1×PBS, and fixed in ice-cold MeOH at −20° C. After overnight incubation, the cells are washed with PBS and incubated with 50 μg/mL propidium iodide (Sigma, Co) and 50 μg/mL RNase A (Sigma, Co) in PBS at room temperature for 30 min. The fractions of cells in each phase of cell cycle are analyzed using FACScan flow cytometer and Cell Quest software (Becton Dickinson).

[4] = system: NTUB1 cells; assay: Intracellular ROS by DCFH-DA flow cytometry in NTUB1 cells; type: cell-based, human
Protocol: As to the quantitative analysis of intracellular ROS, the flow cytometry analysis is also adopted. Cells are plated and treated as above-mentioned conditions. Ten-micromolar dichlorofluorescein diacetate (DCFH-DA; Molecular Probes, Eugene, Oreg.) is added to the treated cells 30 min prior harvest. The cells are collected by trypsinization and washed with PBS. The green fluorescence of intracellular DCF (2′,7′-dichlorofluorescein) is then analyzed immediately by FACScan flow cytometer with a 525-nm band pass filter (Becton Dickinson).

[5] = system: A549 cells; assay: MTT cytotoxicity assay against A549 cells; type: cell-based, human; settings: 72 h
Text: as §1

[6] = system: accumulation of NO2−; assay: Experiment A: accumulation of NO2− (Griess reaction); type: cell-based, rat; settings: for percentage of inhibition at 30 μM, A NO2−: given when 50% inhibition not reached; for IC50: inhibition of accumulation of NO2−
Protocol: (§2) This example illustrates the anti-inflammatory activities of compounds 5, 7-11, 20 and 21. The anti-inflammatory activities of compounds 5, 7-11, 20 and 21 are studied in vitro for their inhibitory effects on chemical mediators released from neutrophils, mast cells or macrophages of rat.
(§3) Please refer to Table 2, which illustrates the inhibitory effects of compounds 5, 7-11, 20 and 21 on the accumulation of NO2^− (Experiment A), superoxide anion formation (n mol/10^6 cells/30 min) from rat neutrophils stimulated with PMA (Experiment B), and the release of β-glucuronidase from rat peritoneal mast cells stimulated with compound 48/80 (Experiment C). In Table 2, when 50% inhibition could not be reached at the highest concentration, the percentage of inhibition at 30 μM is given.
In the Experiment A, Nitric oxide (NO) in the cell medium is determined by the Griess reaction, and N-(3-aminomethyl)benzylamide (1400 W) is used as a positive control.

[7] = system: rat neutrophils stimulated with PMA; assay: Experiment B: superoxide anion formation from rat neutrophils stimulated with PMA; type: cell-based; settings: PMA (3 nM)
Protocol: This example illustrates the anti-inflammatory activities of compounds 5, 7-11, 20 and 21. The anti-inflammatory activities of compounds 5, 7-11, 20 and 21 are studied in vitro for their inhibitory effects on chemical mediators released from neutrophils, mast cells or macrophages of rat. […] In Table 2, when 50% inhibition could not be reached at the highest concentration, the percentage of inhibition at 30 μM is given. In the Experiment B, superoxide anion generation is measured in terms of superoxide dismutase-inhibitable cytochrome c reduction. Neutrophils isolated from the peripheral blood of the rats are washed and suspended in Hanks' balanced salt solution (HBSS). Neutrophil suspension is preincubated with DMSO or drugs, and then superoxide dismutase (SOD) or HBSS is added into the blank and test wells, respectively. The final volume of DMSO in the reaction mixture is ≦0.5%. After addition of cytochrome c, reaction is initiated by challenge with PMA (3 nM). Thirty minutes later, the reaction is terminated by centrifugation and the absorbance changes of supernatant are monitored at 550 nm in a microplate reader. The superoxide anion generation is measured in terms of superoxide dismutase-inhibitable cytochrome c reduction. Trifluoperazine is used as a positive control for the Experiment B.

[8] = system: rat peritoneal mast cells stimulated with compound 48/80; assay: Experiment C: release of β-glucuronidase from rat peritoneal mast cells stimulated with compound 48/80; type: cell-based; settings: Mast cell; rat peritoneal mast cells, compound 48/80
Protocol: as §2, §3
In the Experiment C, Heparinized Tyrode's solution is injected into the peritoneal cavity of exsanguinated rat (Sprague-Dawley, 250-300 g). After abdominal massage, cells in the peritoneal fluid are harvested and then separated in 38% bovine serum albumin (BSA) in glucose-free Tyrode's solution. […] Fifteen min after the addition of compound 48/80 ([…]), β-glucuronidase (phenolphthalein-β-glucuronide as substrate, 550 nm) in the supernatant is determined. The total content of β-glucuronidase is measured after treatment of the cell suspension with Triton X-100, and the percentage release is calculated. […]

[9] = 50 μM, compared across the three cell lines

Compound: C[C@H]1[C@H](C)CC[C@]2(C(=O)O)CC[C@]3(C)C(=CC[C@@H]4[C@@]5(C)CC[C@H](O)C(C)(C)[C@@H]5CC[C@]43C)[C@H]12 [Compound 1, ursolic acid]
IC50 ([1]; Homo sapiens, 72 h): 29.4 ± 1.9 µM

Compound: COC(=O)[C@]12CC[C@@H](C)[C@H](C)[C@H]1C1=CC[C@@H]3[C@@]4(C)CC[C@H](O)C(C)(C)[C@@H]4CC[C@@]3(C)[C@]1(C)CC2 [Compound 2]
IC50 ([1]; 72 h): 37.1 µM | cytotoxic activity against NTUB1 cells, in words [1]: decreases the cytotoxic activity

Compound: CCOC(=O)C12CCC(C)C(C)C1C1=CCC3C4(C)CCC(O)C(C)(C)C4CCC3(C)C1(C)CC2 (stereo not drawn) [Compound 3]
IC50 ([1]; 72 h): 13.5 µM

Compound: CC(C)OC(=O)[C@]12CC[C@@H](C)[C@H](C)[C@H]1C1=CC[C@@H]3[C@@]4(C)CC[C@H](O)C(C)(C)[C@@H]4CC[C@@]3(C)[C@]1(C)CC2 [Compound 5, Isopropyl 3β-hydroxyurs-12-en-28-oate]
cytotoxic effect at 50 μM, NTUB1 cells ([1]; 50 μM, 72 h, compared across the three cell lines): same cytotoxic effect | IC50 ([1]; 72 h): 7.97 ± 0.48 µM | cytotoxic effect at 50 μM, PC3 cells [2, 9]: same cytotoxic effect | cytotoxic effect against PC3 cells compared with NTUB1 cells ([2]; MTT, FIG. 4): do not exhibit stronger cytotoxic effects | effect on cell cycle progression ([3]; 20-40 μM, 48 h): arrests G2/M phase before accumulation of cells in sub-G1 phase | effect on cell cycle progression ([3]; 20 and 40 μM (20-40 μM), 24 h): induces G1 phase arrest in a dose-dependent manner | apoptotic cell death ([3]; 20 and 40 μM, 24 h): increase in the apoptotic cell death | intracellular ROS ([4]; 40 μM, 24 h, effect inhibited by NAC): significant increase in intracellular ROS | intracellular ROS ([4]; 20 and 40 μM, 48 h, effect not inhibited by NAC): significant increase in intracellular ROS | cytotoxic effect at 50 μM, A549 cells [5, 9]: same cytotoxic effect | cytotoxic effect against A549 cells compared with NTUB1 cells ([5]; MTT, FIG. 4): do not exhibit stronger cytotoxic effects | percentage of inhibition at 30 μM, A NO2− [6]: 45.3 ± 7.0%

IC50 [7]: 10.8 ± 2.2 µM
Compound: CCCCCOC(=O)[C@]12CC[C@@H](C)[C@H](C)[C@H]1C1=CC[C@@H]3[C@@]4(C)CC[C@H](O)C(C)(C)[C@@H]4CC[C@@]3(C)[C@]1(C)CC2 [Compound 7, Pentyl 3β-hydroxyurs-12-en-28-oate]
IC50 ([1]; 72 h): 27.8 ± 1.63 µM | percentage of inhibition at 30 μM, A NO2− [6]: 29.8 ± 3.3%

IC50 [7]: 11.5 ± 0.9 µM
Compound: CCCCCCOC(=O)[C@]12CC[C@@H](C)[C@H](C)[C@H]1C1=CC[C@@H]3[C@@]4(C)CC[C@H](O)C(C)(C)[C@@H]4CC[C@@]3(C)[C@]1(C)CC2 [Compound 8, Hexyl 3β-hydroxyurs-12-en-28-oate]
IC50 ([1]; 72 h): 26.2 ± 2.51 µM

IC50 [7]: 6.1 ± 1.9 µM
Compound: CC(C)=CCOC(=O)[C@]12CC[C@@H](C)[C@H](C)[C@H]1C1=CC[C@@H]3[C@@]4(C)CC[C@H](O)C(C)(C)[C@@H]4CC[C@@]3(C)[C@]1(C)CC2 [Compound 9, 3′-Methyl-2′-butenyl 3β-hydroxyurs-12-en-28-oate]
IC50 ([1]; 72 h): 10.9 ± 2.01 µM | percentage of inhibition at 30 μM, A NO2− [6]: 45.2 ± 5.9%

Compound: C[C@H]1[C@H](C)CC[C@]2(C(=O)OCCO)CC[C@]3(C)C(=CC[C@@H]4[C@@]5(C)CC[C@H](O)C(C)(C)[C@@H]5CC[C@]43C)[C@H]12 [Compound 10, 2′-Hydroxyethyl 3β-hydroxyurs-12-en-28-oate]
IC50 ([1]; 72 h): 19.5 µM | cytotoxic activity against NTUB1 cells, in words [1]: attenuate the cytotoxicity | percentage of inhibition at 30 μM, A NO2− [6]: 33.1 ± 7.2%

Compound: C[C@H]1[C@H](C)CC[C@]2(C(=O)OCC(=O)OC(C)(C)C)CC[C@]3(C)C(=CC[C@@H]4[C@@]5(C)CC[C@H](O)C(C)(C)[C@@H]5CC[C@]43C)[C@H]12 [Compound 11, Tert-Butoxycarbonylmethyl 3β-hydroxyurs-12-en-28-oate]
IC50 ([1]; 72 h): > 30 µM | % of viability at the highest concentration [1]: 64.85% | IC50 [6]: 21.7 ± 6.5 µM

Compound: CC1CCC2(C(=O)O)CCC3(C)C(=CCC4C5(C)CCC(=O)C(C)(C)C5CCC43C)C2C1C (stereo not drawn) [Compound 18]
IC50 ([1]; 72 h): 21.4 ± 15.5 µM | cytotoxic activity against NTUB1 cells, in words [1]: increases cytotoxicities

Compound: COC(=O)C12CCC(C)C(C)C1C1=CCC3C4(C)CCC(=O)C(C)(C)C4CCC3(C)C1(C)CC2 (stereo not drawn) [Compound 19]
IC50 ([1]; 72 h): 29.6 ± 4.65 µM

Compound: C[C@H]1[C@H](C)CC[C@]2(C(=O)O)CC[C@]3(C)C(=CC[C@@H]4[C@@]5(C)CCC(=O)OC(C)(C)[C@@H]5CC[C@]43C)[C@H]12 [Compound 20, 4-Hydroxy-3,4-seco-ursan-12-en-28-oic acid 3,4 lactone]
IC50 ([1]; 72 h): > 30 µM | % of viability at the highest concentration [1]: 63.91% | cytotoxic activity against NTUB1 cells, in words [1]: weakens cytotoxic activities | percentage of inhibition at 30 μM, A NO2− [6]: 41.0 ± 9.6%

Compound: C[C@H]1[C@H](C)CC[C@]2(C(=O)O)CC[C@]3(C)C(=CC[C@@H]4[C@@](C)(CCC(=O)O)[C@H](C(C)(C)O)CC[C@]43C)[C@H]12 [Compound 22, 3,4-seco-Ursan-4-hydroxy-12-en-3,28-dioic acid]
IC50 ([1]; 72 h): > 30 µM | % of viability at the highest concentration [1]: 56.04% | cytotoxic activity against NTUB1 cells, in words [1]: weakens cytotoxic activities

Compound: N.N.[Cl][Pt][Cl] [cisplatin, reference compound]
IC50 ([1]; 72 h): 3.27 ± 0.1 µM | effect on cell cycle progression ([3]; 10 μM, 48 h): S phase arrest | effect on cell cycle progression ([3]; 10 and 20 μM, 24 h): dose dependent accumulation of cells in the G1 phase with a concomitant increase in the population of sub-G1 phase | intracellular ROS ([4]; 10 μM, 24 h, effect inhibited by NAC): significant increase in intracellular ROS | intracellular ROS ([4]; 10 μM, 48 h, effect not inhibited by NAC): significant increase in intracellular ROS

IC50 [8]: 12.4 ± 1.6 µM
Compound: CCN(CC)CCCC(C)Nc1c2ccc(Cl)cc2nc2ccc(OC)cc12 (stereo not drawn) [mepacrine, reference compound]

IC50 ([7]; Neutrophil): 7.3 ± 0.6 µM
Compound: CN1CCN(CCCN2c3ccccc3Sc3ccc(C(F)(F)F)cc32)CC1 [trifluoperazine, reference compound]

Compound: N-(3-aminomethyl)benzylamide [1400 W, reference compound]
IC50 [6]: 5 ± 1.5 µM
